In patent US11827580B2, “Aminotetraline activators of serotonin receptors” (ATAI Life Sciences AG, priority 2021, dated 2023):
Where a name gives a salt, the structure may show the parent alone.

Columns and labels:
5HT2A [1] = biological target: T1, 5HT2A (Homo sapiens, UniProt P28223); assay: 5HT2A activation (%) max at two concentrations (Table 1); format: cell-based; conditions: for 5HT2A activation (%) max @ 03 μM: 03 μM [sic]; for 5HT2A activation (%) max @ 30 μM: 30 μM (first value of the cell)
5HT2A [2] = biological target: T1, 5HT2A; assay: PathHunter β-Arrestin assay; format: cell-based; set-up: host or cells: U2OS (human), stably transfected
Excerpt: Arrestin Pathway (Performed by DiscoverX Eurofins)
The PathHunter® β-Arrestin assay monitors the activation of a GPCR in a homogenous, non-imaging assay format using a technology developed by DiscoverX called Enzyme Fragment Complementation (EFC) with β-galactosidase (β-Gal) as the functional reporter. […] EA is fused to β-Arrestin and PK is fused to the GPCR of interest. When the GPCR is activated and β-Arrestin is recruited to the receptor, ED and EA complementation occurs, restoring β-Gal activity which is measured using chemiluminescent PathHunter® Detection Reagents.
PathHunter cell lines (DiscoveRx Eurofins) were expanded from freezer stocks according to standard procedures. Human 5-HT2A receptor-mediated GPCR β-arrestin activity was evaluated in stably transfected human-derived U2OS cells. Cells were seeded in a total […] into white walled, 384-well microplates and incubated at 37° C. overnight prior to testing.
For agonist determination, cells were incubated with sample to induce response. Intermediate dilution of sample stocks was performed to generate 5× sample in assay buffer. 5 μL of 5× sample was added to cells and incubated at 37° C. or room temperature for 120 minutes. Vehicle concentration was 1%.
β-Arrestin assay signal was generated through a single addition of 12.5 or 15 μL (50% v/v) of PathHunter Detection reagent cocktail, followed by a one hour incubation at room temperature. Microplates were read following signal generation with a PerkinElmer Envision™ instrument for chemiluminescent signal detection.
Compound activity was analyzed using CBIS data analysis suite (ChemInnovation, CA). For agonist mode assays, percentage activity was calculated using the following formula: % Activity=100%×(mean RLU of test sample−mean RLU of vehicle control)/(mean MAX control ligand−mean RLU of vehicle control).
In these studies, the MAX control ligand response was generated using 1 μM serotonin.

5-HT receptors = conditions: cited from earlier work
5HT2A [3] = biological target: T1, 5HT2A; assay: Calcium mobilization assay (Gq signaling); format: cell-based; set-up: host or cells: U2OS (human), stably transfected
Excerpt: (§1) Calcium Mobilization Assay Method (Performed by DiscoveRx Eurofins)
(§2) The Calcium No-Wash^PLUS assay monitors the activation of a GPCR via Gq secondary messenger signaling in a live cell, non-imaging assay format. Calcium mobilization in PathHunter® cell lines or other cell lines stably expressing Gq-coupled GPCRs is monitored using a calcium-sensitive dye that is loaded into cells. GPCR activation by a compound results in the release of calcium from intracellular stores and an increase in dye fluorescence that is measured in real-time.
(§3) Cell lines expressing the GPCR of interest were expanded from freezer stocks according to standard procedures. Human 5-HT2A, 5-HT2B or 5-HT2C receptor-mediated calcium mobilization was evaluated in stably transfected human-derived U2OS (5-HT2A or 5-HT2B) or HEK (5-HT2B) cells. Cells were seeded in a total volume of 20 μL into black-walled, clear-bottom, Poly-D-lysine coated 384-well microplates and incubated at 37° C. overnight prior to testing.
Assays were performed in 1× Dye Loading Buffer consisting of 1× Dye, 1× Additive A and 2.5 mM Probenecid in HBSS/20 mM Hepes. Probenicid was prepared fresh. Cells were loaded with dye prior to testing. Media was aspirated from cells and replaced with 20 μL Dye Loading Buffer. Cells were incubated for 45 minutes at room temperature.
For agonist determination, cells were incubated with sample to induce response. After dye loading, cells were removed from the incubator and 10 μL HBSS/20 mM Hepes was added. 3× vehicle was included in the buffer when performing agonist dose curves to define the EC80 for subsequent antagonist assays. Cells were incubated for 30 minutes at room temperature in the dark to equilibrate plate temperature.
(§4) Intermediate dilution of sample stocks was performed to generate 4× sample in assay buffer. Compound agonist activity was measured on a FLIPR Tetra (MDS). Calcium mobilization was monitored for 2 minutes and 10 μL 4× sample in HBSS/20 mM Hepes was added to the cells seconds into the assay.
Compound activity data was analyzed using CBIS data analysis suite (ChemInnovation, CA). For agonist mode assays, percentage activity is calculated using the following formula: % Activity=100%×(mean RFU of test sample−mean RFU of vehicle control)/(mean MAX RFU control ligand−mean RFU of vehicle control).
In these studies, the MAX RFU was generated by using 0.1 μM serotonin for the calcium mobilization assay.

Human 5-HT2C receptor = biological target: T2, Human 5-HT2C receptor (Homo sapiens, UniProt P28335); assay: Calcium mobilization assay (Gq signaling); format: cell-based
T2 construct: host or cells: U2OS or HEK (not assigned to 5-HT2C in the text)
T2 sequence (P28335 33-458): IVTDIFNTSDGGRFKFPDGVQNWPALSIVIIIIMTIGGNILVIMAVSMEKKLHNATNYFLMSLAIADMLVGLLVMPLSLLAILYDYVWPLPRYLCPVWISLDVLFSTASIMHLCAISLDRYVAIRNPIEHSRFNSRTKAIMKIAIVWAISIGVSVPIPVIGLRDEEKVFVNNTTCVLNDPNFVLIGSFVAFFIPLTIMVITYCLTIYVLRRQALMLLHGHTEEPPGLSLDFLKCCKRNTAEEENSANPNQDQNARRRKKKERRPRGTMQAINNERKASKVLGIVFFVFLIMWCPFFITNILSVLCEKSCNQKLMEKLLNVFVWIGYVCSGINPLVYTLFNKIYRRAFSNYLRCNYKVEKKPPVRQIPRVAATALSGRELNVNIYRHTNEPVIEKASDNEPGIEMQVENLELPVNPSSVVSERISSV
Excerpt: as §1, §2
as §3, with “testing. […]” for “testing.”
as §4
(§5) Compound activity data was analyzed using CBIS data analysis suite (ChemInnovation, CA). […]

Human 5-HT2B receptor = biological target: T3, Human 5-HT2B receptor (Homo sapiens, UniProt P41595); assay: Calcium mobilization assay (Gq signaling); format: cell-based
T3 construct: host or cells: U2OS or HEK (the text names 5-HT2B under both)
Excerpt: as §1, §2
as §3, with “testing. […]” for “testing.”
as §4, §5

[4] = in comparison to mescaline or 2,5-dimethoxy-4-methylphenylisopropylamine at similar doses; cited from earlier work
Human 5-HT1A receptor = biological target: T4, Human 5-HT1A receptor (Homo sapiens, UniProt P08908); assay: cAMP secondary messenger pathway assay (HitHunter cAMP, Gi agonist mode); format: cell-based; conditions: CHO cells, forskolin present, read-out: EC50 5-HT1A (Gi signaling)
T4 construct: host or cells: CHO (hamster), stably transfected, cAMP Hunter cell line
T4 sequence (P08908 1-422): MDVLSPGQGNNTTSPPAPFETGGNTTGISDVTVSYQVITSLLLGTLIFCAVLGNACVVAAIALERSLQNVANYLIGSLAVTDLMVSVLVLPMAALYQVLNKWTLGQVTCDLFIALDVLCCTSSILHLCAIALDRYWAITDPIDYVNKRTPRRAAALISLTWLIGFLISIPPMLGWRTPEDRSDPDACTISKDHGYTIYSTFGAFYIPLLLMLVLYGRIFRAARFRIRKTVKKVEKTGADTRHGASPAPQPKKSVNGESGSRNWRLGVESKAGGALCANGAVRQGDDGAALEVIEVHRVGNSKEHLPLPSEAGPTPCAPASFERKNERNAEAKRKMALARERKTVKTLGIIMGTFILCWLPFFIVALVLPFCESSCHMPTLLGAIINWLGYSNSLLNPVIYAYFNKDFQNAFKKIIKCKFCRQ
Excerpt: cAMP Secondary Messenger Pathway Assay Method (Performed by DiscoveRx Eurofins)
DiscoverX has developed a panel of cell lines stably expressing non-tagged GPCRs that signal through cAMP. Hit Hunter® cAMP assays monitor the activation of a GPCR via Gi and Gs secondary messenger signaling in a homogenous, non-imaging assay format using a technology developed by DiscoverX called Enzyme Fragment Complementation (EFC) with β-galactosidase (β-Gal) as the functional reporter. The enzyme is split into two complementary portions: EA for Enzyme Acceptor and ED for Enzyme Donor. ED is fused to cAMP and in the assay competes with cAMP generated by cells for binding to a cAMP-specific antibody. Active β-Gal is formed by complementation of exogenous EA to any unbound ED-cAMP. Active enzyme can then convert a chemiluminescent substrate, generating an output signal detectable on a standard microplate reader.
cAMP Hunter cell lines were expanded from freezer stocks according to standard procedures. Human 5-HT1A receptor-mediated cAMP signaling was evaluated in stably transfected hamster-derived CHO cells. Cells were seeded in a total volume of 20 μL into white walled, 384-well microplates and incubated at 37° C. overnight. cAMP modulation was determined using the DiscoverX HitHunter cAMP XS+ assay. […]
Compound activity was analyzed using CBIS data analysis suite (ChemInnovation, CA). […]

T1 sequence (P28223 whole entry): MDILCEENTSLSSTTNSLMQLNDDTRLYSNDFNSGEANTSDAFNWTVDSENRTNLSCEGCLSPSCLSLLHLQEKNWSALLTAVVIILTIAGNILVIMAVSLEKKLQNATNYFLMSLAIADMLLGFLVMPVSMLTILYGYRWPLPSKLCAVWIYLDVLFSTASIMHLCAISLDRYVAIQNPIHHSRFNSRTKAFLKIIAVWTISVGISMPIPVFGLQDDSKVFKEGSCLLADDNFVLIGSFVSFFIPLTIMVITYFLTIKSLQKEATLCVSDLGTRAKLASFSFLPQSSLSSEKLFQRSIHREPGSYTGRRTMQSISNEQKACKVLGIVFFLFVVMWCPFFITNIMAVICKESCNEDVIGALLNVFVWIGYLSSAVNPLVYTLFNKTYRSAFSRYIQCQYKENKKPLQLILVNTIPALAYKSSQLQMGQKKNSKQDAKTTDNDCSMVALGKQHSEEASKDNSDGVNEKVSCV
T3 sequence (P41595 whole entry): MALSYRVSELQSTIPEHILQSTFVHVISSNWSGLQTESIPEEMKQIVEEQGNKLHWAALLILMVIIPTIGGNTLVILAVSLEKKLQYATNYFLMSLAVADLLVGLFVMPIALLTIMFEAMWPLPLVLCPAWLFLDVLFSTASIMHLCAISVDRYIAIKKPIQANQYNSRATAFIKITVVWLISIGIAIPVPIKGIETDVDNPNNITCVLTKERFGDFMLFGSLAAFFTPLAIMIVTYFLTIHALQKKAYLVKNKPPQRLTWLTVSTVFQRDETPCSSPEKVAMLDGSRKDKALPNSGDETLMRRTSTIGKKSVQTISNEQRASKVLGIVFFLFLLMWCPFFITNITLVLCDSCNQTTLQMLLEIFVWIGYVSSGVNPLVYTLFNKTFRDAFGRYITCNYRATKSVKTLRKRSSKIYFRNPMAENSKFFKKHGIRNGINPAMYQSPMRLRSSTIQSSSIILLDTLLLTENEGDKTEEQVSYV

SMILES | 5HT2A activation (%) max @ 03 μM (5HT2A [1]) [%] | 5HT2A activation (%) max @ 30 μM (5HT2A [1]) [%] | agonism / potency for β-arrestin recruitment at 5-HT2A (5HT2A [2]) | EC50 (5HT2A [2]; U2OS cells, read-out: EC50 5-HT2A (β-arrestin signaling)) [nM] | Emax (5HT2A [2]; read-out: maximum efficacy levels (partial agonism), pathway not given, β-arrestin by context) [%] | activity at 5-HT receptors (5-HT receptors) | agonism of 5-HT2A Gq-mediated signaling (5HT2A [3]) | potency bias, 5-HT2A Gq-mediated signaling versus β-arrestin recruitment (5HT2A [3]; FIG. 1B) [fold] | increase in potency at 5-HT2A compared to 5-HT2B (5HT2A [3]; Gq signaling, FIG. 1A) [fold] | EC50 (5HT2A [3]; calcium mobilization) [nM] | Emax (5HT2A [3]; compared to the maximum serotonin response, read-out: max activation of 5-HT2A Gq-mediated signaling) [%] | EC50 (Human 5-HT2C receptor) [nM] | EC50 (Human 5-HT2B receptor) [nM] | common psychedelic side effects in rats [4] | EC50 (Human 5-HT1A receptor) [nM]
COc1ccc(OC)c2c1CCCC2CN (stereo not shown) [Compound 3-1, (5,8-dimethoxy-1,2,3,4-tetrahydronaphthalen-1-yl)methanamine hydrochloride] | 1.5 | 53 |  |  |  |  |  |  |  |  |  |  |  |  | 
COc1cc(C)c(OC)c2c1CC(N)CC2 (stereo not shown) [Compound 1-2, 5,8-dimethoxy-6-methyl-1,2,3,4-tetrahydronaphthalen-2-amine] | 60.9 | 81.9 | partial agonism | 386 | 66 | has activity at 5-HT receptors | full-agonism | ~10 | ~8 | 38.8 | 97 | 4.8 | 315 | failed to elicit common psychedelic side effects | 438
CNC1CCc2c(OC)ccc(OC)c2C1 (stereo not shown) [Compound 1-4, 5,8-dimethoxy-N-methyl-1,2,3,4-tetrahydronaphthalen-2-amine hydrochloride] | 8.5 | 20.3 |  |  |  |  |  |  |  |  |  |  |  |  | 
